Reference: patent publication US11873298B2, “Compounds and uses thereof” (JANSSEN PHARMACEUTICA NV, priority 2017, dated 2024)

Columns and labels:
yeast OLE1 = target: T1, yeast OLE1 (Saccharomyces cerevisiae, UniProt P21147); assay: Growth of yeast surviving solely on yeast OLE1; type: cell-based
T1 construct: expressed in transfected cells; host or cells: S. cerevisiae ole1Δ strain (W303 pdr1Δ pdr3Δ background), plasmid pRS316 with TDH3 promoter and CYC1 terminator
T1 sequence (P21147 1-510): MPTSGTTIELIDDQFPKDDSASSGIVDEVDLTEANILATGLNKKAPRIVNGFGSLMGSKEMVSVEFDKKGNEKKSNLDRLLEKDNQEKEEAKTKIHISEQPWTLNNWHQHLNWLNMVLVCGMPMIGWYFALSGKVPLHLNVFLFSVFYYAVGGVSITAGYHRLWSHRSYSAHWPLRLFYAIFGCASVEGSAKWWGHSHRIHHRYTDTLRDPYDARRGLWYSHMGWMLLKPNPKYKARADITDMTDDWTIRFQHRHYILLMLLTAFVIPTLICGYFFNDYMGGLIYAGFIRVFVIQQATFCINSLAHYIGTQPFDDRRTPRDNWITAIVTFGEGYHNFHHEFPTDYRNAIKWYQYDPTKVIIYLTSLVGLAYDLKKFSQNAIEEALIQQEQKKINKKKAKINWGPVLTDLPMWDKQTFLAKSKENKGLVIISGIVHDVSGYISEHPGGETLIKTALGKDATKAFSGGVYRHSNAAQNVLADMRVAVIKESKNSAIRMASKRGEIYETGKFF
Protocol: (§1) FIG. 6 is a series of graphs showing that commercial Scd inhibitors target human SCD1/SCD5 in yeast. Yeast surviving solely on yeast OLE1, or human SCD1 or SCD5, were treated with four commercial Scd inhibitors at indicated concentrations. Data are expressed as a percent of the DMSO-treated condition.
(§2) FIG. 7 is a series of graphs showing that 1,2,4-oxadiazoles target human SCD1 and SCD5. Three “SCD” strains expressing yeast OLE1 or human SCD1 or SCD5 were treated with five representative 1,2,4-oxadiazoles and a cycloheximide toxicity control at concentrations indicated on the log10 x-axis. The y-axis indicates the percent of the DMSO-treated condition. […] Approximately one half of all (250) 1,2,4-oxadiazoles tested inhibited SCD1 or SCD5 in a manner that was reversed by oleic/palmitoleic acid treatment.

SCD1 = target: T2, SCD1 (Homo sapiens, UniProt O00767); assay: Growth of yeast surviving solely on human SCD1; type: cell-based
T2 construct: host or cells: S. cerevisiae ole1Δ strain (W303 pdr1Δ pdr3Δ background), plasmid pRS316 with TDH3 promoter and CYC1 terminator
T2 sequence (O00767 1-359): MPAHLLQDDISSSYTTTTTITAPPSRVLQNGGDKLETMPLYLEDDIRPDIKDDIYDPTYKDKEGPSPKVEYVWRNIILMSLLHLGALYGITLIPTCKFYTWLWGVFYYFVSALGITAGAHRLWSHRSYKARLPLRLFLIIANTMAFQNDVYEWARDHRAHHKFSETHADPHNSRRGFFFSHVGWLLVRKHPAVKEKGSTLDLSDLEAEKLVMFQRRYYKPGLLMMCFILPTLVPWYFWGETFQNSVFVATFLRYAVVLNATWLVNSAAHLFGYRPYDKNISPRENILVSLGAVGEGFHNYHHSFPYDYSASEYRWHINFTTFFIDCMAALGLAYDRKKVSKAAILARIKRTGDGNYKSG
Protocol: as §1, §2

SCD5 = target: T3, SCD5 (Homo sapiens, UniProt Q86SK9); assay: Growth of yeast surviving solely on human SCD5; type: cell-based
T3 construct: host or cells: S. cerevisiae ole1Δ strain (W303 pdr1Δ pdr3Δ background), plasmid pRS316 with TDH3 promoter and CYC1 terminator
T3 sequence (Q86SK9 1-330): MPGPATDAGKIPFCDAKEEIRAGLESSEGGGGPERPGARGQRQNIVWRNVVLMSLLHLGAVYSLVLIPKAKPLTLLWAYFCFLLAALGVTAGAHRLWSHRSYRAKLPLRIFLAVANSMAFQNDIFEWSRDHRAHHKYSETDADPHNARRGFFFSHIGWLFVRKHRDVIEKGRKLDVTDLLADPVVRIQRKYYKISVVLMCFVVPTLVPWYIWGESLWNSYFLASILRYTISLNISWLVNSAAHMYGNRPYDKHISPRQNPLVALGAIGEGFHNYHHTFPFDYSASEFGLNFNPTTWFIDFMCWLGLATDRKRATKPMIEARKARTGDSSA
Protocol: as §1, §2

[1] = tested on: yeast strains expressing the human α-synuclein; settings: reference compound, earlier work; cited from earlier work

SMILES	growth of the strain expressing yeast OLE1 (percent of the DMSO-treated condition) (yeast OLE1)	growth of SCD1-expressing yeast (percent of the DMSO-treated condition) (SCD1)	growth of SCD5-expressing yeast (percent of the DMSO-treated condition) (SCD5)	rescue of αSyn toxicity in yeast models [1]
C[C@@H]1C[C@@H]([C@H](O)CC2CC(=O)NC(=O)C2)C(=O)[C@@H](C)C1 [Cyclohexamide, cycloheximide]	inhibited growth of all three strains with the same potency	inhibited growth of all three strains with the same potency	inhibited growth of all three strains with the same potency	–
C=CC[C@@H]1/C=C(\C)C[C@H](C)C[C@H](OC)[C@H]2O[C@@](O)(C(=O)C(=O)N3CCCC[C@H]3C(=O)O[C@H](/C(C)=C/[C@@H]3CC[C@@H](O)[C@H](OC)C3)[C@H](C)[C@@H](O)CC1=O)[C@H](C)C[C@@H]2OC [FK506, tacrolimus]	–	–	–	rescue αSyn toxicity
